“And” between values parts separate entries of the source, which are not always exact repeats. Equal entries are not always repeated. Toxic doses and inconclusive results are not listed.

For this assay, the system named is L1210 leukemia ip in BDF1 mice, survival T/C. The experiment in a line: NCI In Vivo Anticancer Drug Screen. Data for tumor model L1210 Leukemia (intraperitoneal) in B6D2F1 (BDF1) mice. Conditions: endpoint: mean survival time, higher = longer survival. A digest of the protocol:
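Tumor cells were implanted, animals were treated, and survival was followed. The result divides the treated measurement by the vehicle-control measurement.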

The mark [1] stands for this setting: dose: 10.0 mg/kg/injection, schedule: Q01DX001 (ip), vehicle: saline.
Where [2] appears, read: dose: 20.0 mg/kg/injection, schedule: Q01DX001 (ip), vehicle: saline.
Where [3] appears, read: dose: 40.0 mg/kg/injection, schedule: Q01DX001 (ip), vehicle: saline.
Setting [4] is: dose: 100.0 mg/kg/injection, schedule: Q04DX003 (ip), vehicle: Klucel (hydroxypropylcellulose) (HPC).
Where [5] appears, read: dose: 200.0 mg/kg/injection, schedule: Q04DX003 (ip), vehicle: Klucel (hydroxypropylcellulose) (HPC).
The mark [6] stands for this setting: dose: 400.0 mg/kg/injection, schedule: Q04DX003 (ip), vehicle: Klucel (hydroxypropylcellulose) (HPC).
Setting [7] is: dose: 100.0 mg/kg/injection, schedule: Q01DX009 (ip), vehicle: saline.
[8] abbreviates: dose: 200.0 mg/kg/injection, schedule: Q01DX009 (ip), vehicle: saline.
[9] abbreviates: dose: 400.0 mg/kg/injection, schedule: Q01DX009 (ip), vehicle: saline.
Where [10] appears, read: dose: 100.0 mg/kg/injection, schedule: Q04DX003 (ip), vehicle: saline with Tween-80.
Where [11] appears, read: dose: 200.0 mg/kg/injection, schedule: Q04DX003 (ip), vehicle: saline with Tween-80.
Where [12] appears, read: dose: 400.0 mg/kg/injection, schedule: Q04DX003 (ip), vehicle: saline with Tween-80.
Setting [13] is: dose: 25.0 mg/kg/injection, schedule: Q01DX009 (ip), vehicle: saline with Tween-80.
Where [14] appears, read: dose: 50.0 mg/kg/injection, schedule: Q01DX009 (ip), vehicle: saline with Tween-80.
The mark [15] stands for this setting: dose: 50.0 mg/kg/injection, schedule: Q04DX003 (ip), vehicle: Klucel (hydroxypropylcellulose) (HPC).
Setting [16] is: dose: 100.0 mg/kg/injection, schedule: Q01DX009 (ip), vehicle: Klucel (hydroxypropylcellulose) (HPC).
Setting [17] is: dose: 100.0 mg/kg/injection, schedule: Q01DX009 (ip), vehicle: saline with Tween-80.
Where [18] appears, read: dose: 200.0 mg/kg/injection, schedule: Q01DX009 (ip), vehicle: Klucel (hydroxypropylcellulose) (HPC).
Setting [19] is: dose: 400.0 mg/kg/injection, schedule: Q01DX009 (ip), vehicle: Klucel (hydroxypropylcellulose) (HPC).
Where [20] appears, read: dose: 100.0 mg/kg/injection, schedule: Q01DX001 (ip), vehicle: Klucel (hydroxypropylcellulose) (HPC).
Where [21] appears, read: dose: 200.0 mg/kg/injection, schedule: Q01DX001 (ip), vehicle: Klucel (hydroxypropylcellulose) (HPC).
Setting [22] is: dose: 400.0 mg/kg/injection, schedule: Q01DX001 (ip), vehicle: Klucel (hydroxypropylcellulose) (HPC).

With `CC(=O)[C@]1(O)Cc2c(O)c3c(c(O)c2[C@@H](OC2CC(N)C(O)C(C)O2)C1)C(=O)c1c(O)cccc1C3=O` (stereo partly drawn), the T/C runs as follows: (dose: 0.05 mg/kg/injection, schedule: Q03DX003 (ip), vehicle: saline) 109 % of control; (dose: 0.1 mg/kg/injection, schedule: Q03DX003 (ip), vehicle: saline) 123 % of control; (dose: 0.2 mg/kg/injection, schedule: Q01DX001 (ip), vehicle: saline) 122 % of control; (dose: 0.4 mg/kg/injection, schedule: Q01DX009 (ip), vehicle: saline) 154 % of control; (dose: 0.4 mg/kg/injection, schedule: Q03DX003 (ip), vehicle: saline) 157 % of control; (dose: 0.8 mg/kg/injection, schedule: Q01DX001 (ip), vehicle: saline) 192 % of control. Besides, the T/C was 98 % of control (dose: 0.8 mg/kg/injection, schedule: Q01DX009 (ip), vehicle: saline); 159 % of control (dose: 0.8 mg/kg/injection, schedule: Q03DX003 (ip), vehicle: saline); 166 % of control (dose: 1.6 mg/kg/injection, schedule: Q01DX001 (ip), vehicle: saline).

As for `COc1cc(C[N+]23CC[N+](Cc4cc(OC)cc(OC)c4)(CC2)C3)cc(OC)c1`, the T/C is, setting by setting: (dose: 5.0 mg/kg/injection, schedule: Q01DX001 (ip), vehicle: saline) 100 % of control; under setting [1], 100 % of control; under setting [2], 103 % of control; under setting [3], 103 % of control; (dose: 80.0 mg/kg/injection, schedule: Q01DX001 (ip), vehicle: saline) 100 % of control.

Regarding `Cn1cnc2nc(Cl)[nH]c(=O)c21`, the T/C by setting is: under setting [4], 100 % of control; under setting [5], 97 % of control; under setting [6], 95 % of control.

With `CC(=O)C(C)(O)C(C)(C)C` (stereo not drawn), the T/C under setting [7] is 88 % of control, the T/C under setting [8] was 90 % of control and the T/C under setting [9] is 98 % of control.

With `COC(=O)c1ccc(C(F)(F)F)cc1O`, the T/C is 97 % of control under setting [4], 100 % of control under setting [5] and 108 % of control under setting [6].

Consider `CCCCNC(C)(C)C(SS)c1ccco1` (stereo not drawn), for which the T/C by setting is: (dose: 12.5 mg/kg/injection, schedule: Q04DX003 (ip), vehicle: alcohol) 104 % of control; (dose: 25.0 mg/kg/injection, schedule: Q01DX009 (ip), vehicle: saline) 97 % of control; (dose: 25.0 mg/kg/injection, schedule: Q04DX003 (ip), vehicle: alcohol) 101 % of control; (dose: 50.0 mg/kg/injection, schedule: Q01DX009 (ip), vehicle: saline) 92 % of control; (dose: 50.0 mg/kg/injection, schedule: Q04DX003 (ip), vehicle: alcohol) 96 % of control; under setting [7], 98 % of control. The T/C is, setting by setting: (dose: 100.0 mg/kg/injection, schedule: Q04DX003 (ip), vehicle: alcohol) 101 % of control; (dose: 150.0 mg/kg/injection, schedule: Q01DX009 (ip), vehicle: saline with Tween-80) 92 % of control; (dose: 200.0 mg/kg/injection, schedule: Q04DX003 (ip), vehicle: alcohol) 104 % of control.

For the molecule `CCc1ccccc1NC(=O)Oc1cccc(C(F)(F)F)c1`, the T/C under setting [7] is 104 % of control, the T/C under setting [8] was 94 % of control and the T/C under setting [9] is 103 % of control.

Take `COc1cc(OC)c(Oc2cc(OC)c(OC)c(OC)c2)c(OC)c1`: the T/C under setting [10] is 97 % of control, the T/C under setting [11] is 103 % of control and the T/C under setting [12] was 101 % of control.

In the case of `CN(C)N=Nc1ccccc1Cl`, the T/C under setting [13] was 106 % of control; the T/C under setting [14] is 120 % of control; the T/C under setting [15] was 97 % of control; the T/C under setting [16] was 95 % of control; the T/C under setting [17] is 123 % of control; the T/C under setting [4] is 102 % of control and 103 % of control. Further, the T/C runs as follows: under setting [5], 103 % of control and 111 % of control; under setting [6], 113 % of control.

`COc1cc(Cl)ccc1NC(=O)Oc1ccc(-c2ccccc2)cc1`: the T/C is 116 % of control under setting [16], 94 % of control under setting [18] and 92 % of control under setting [19].

For `CC(=O)CC(C)=Nc1cccc(N=C(C)CC(C)=O)c1`, the T/C (dose: 87.5 mg/kg/injection, schedule: Q04DX003 (ip), vehicle: saline with Tween-80) was 93 % of control; the T/C (dose: 175.0 mg/kg/injection, schedule: Q04DX003 (ip), vehicle: saline with Tween-80) was 93 % of control; the T/C (dose: 350.0 mg/kg/injection, schedule: Q04DX003 (ip), vehicle: saline with Tween-80) is 93 % of control.

With `O=C(CCCC(=O)OCC(F)(F)C(F)(F)C(F)(F)C(F)F)OCC(F)(F)C(F)(F)C(F)(F)C(F)F`, the T/C (dose: 50.0 mg/kg/injection, schedule: Q01DX001 (ip), vehicle: carboxymethylcellulose (CMC)) is 102 % of control; the T/C (dose: 100.0 mg/kg/injection, schedule: Q01DX001 (ip), vehicle: carboxymethylcellulose (CMC)) was 100 % of control; the T/C (dose: 200.0 mg/kg/injection, schedule: Q01DX001 (ip), vehicle: carboxymethylcellulose (CMC)) is 100 % of control; the T/C (dose: 400.0 mg/kg/injection, schedule: Q01DX001 (ip), vehicle: carboxymethylcellulose (CMC)) was 100 % of control.

Turning to `CC(=O)c1ccc(N2C(=O)C=CC2=O)cc1`, the T/C runs as follows: (dose: 25.0 mg/kg/injection, schedule: Q04DX003 (ip), vehicle: Klucel (hydroxypropylcellulose) (HPC)) 114 % of control; under setting [15], 115 % of control.

As to `CC1=NCC[N-]CC[N-]CCN=C(C)C2CCCC1[N-]2.[Mn+3]`, the T/C reads like this: under setting [1], 105 % of control; under setting [2], 102 % of control; under setting [3], 102 % of control.

As for `NCCc1c[nH]c2ccccc12`, the T/C runs as follows: (dose: 50.0 mg/kg/injection, schedule: Q01DX001 (ip), vehicle: saline) 104 % of control; (dose: 100.0 mg/kg/injection, schedule: Q01DX001 (ip), vehicle: saline) 102 % of control; under setting [10], 104 % of control; (dose: 200.0 mg/kg/injection, schedule: Q01DX001 (ip), vehicle: saline) 91 % of control; under setting [11], 93 % of control; under setting [12], 110 % of control.

Turning to `COC(=O)C1C2C=CC(C2=C(c2ccccc2)c2ccccc2)C1C(=O)OC` (stereo not drawn), the T/C was 98 % of control under setting [20]; 96 % of control under setting [16]; 107 % of control under setting [4]; 97 % of control under setting [21]; 102 % of control under setting [18]; 100 % of control under setting [5]. For the same molecule, the T/C by setting is: under setting [22], 92 % of control; under setting [19], 96 % of control; under setting [6], 100 % of control.

As for `COc1ccc(OC)c2c1C1C=CC2C1`, the T/C (dose: 177.0 mg/kg/injection, schedule: Q01DX001 (ip), vehicle: other) was 98 % of control; the T/C (dose: 266.0 mg/kg/injection, schedule: Q01DX001 (ip), vehicle: other) is 94 % of control; the T/C (dose: 400.0 mg/kg/injection, schedule: Q01DX001 (ip), vehicle: other) was 89 % of control; the T/C (dose: 600.0 mg/kg/injection, schedule: Q01DX001 (ip), vehicle: other) was 96 % of control.

Consider `COc1ccc(C(=O)/C=C/c2ccccc2)cc1`, for which the T/C was 102 % of control under setting [20], 113 % of control under setting [21] and 100 % of control under setting [22].

Take `CC(C(=O)C(Cc1ccccc1)c1ccccc1)C1CCC2C3C(OC=O)CC4CC(OC=O)CCC4(C)C3CC(OC=O)C12C` (stereo not drawn): the T/C was 90 % of control (dose: 12.5 mg/kg/injection, schedule: Q01DX009 (ip), vehicle: saline with Tween-80); 87 % of control under setting [13]; 90 % of control under setting [14]; 91 % of control under setting [17]; 88 % of control (dose: 200.0 mg/kg/injection, schedule: Q01DX009 (ip), vehicle: saline with Tween-80).

The record behind these values is PubChem BioAssay AID248 (DTP/NCI, 2004).
